Laboratory results reported in a melting point compilation (Tetko et al.).

melting point [°C]	Structure (SMILES)
157	O=C(NC1Cc2ccccc21)c1ccccc1 (stereo not given)
140	CC(=O)Oc1cccc(C(N)=O)c1
160	COc1ccc(Br)c(C(N)=O)c1
182 to 185	CC(=O)N1CCc2ccc(N)cc21
196	Cc1ccc(-c2csc(/C(C#N)=N/Nc3ccc(F)cc3)n2)cc1
145	NS(=O)(=O)c1cc(S(=O)(=O)c2cccc(O)c2)cs1
250	O=C(O)c1ccnc(C(=O)O)c1C(=O)O
64	CCC1=C(C)C2=CCC=CC2=N1
127	Cc1cc(Br)cnc1NC(=O)C(C)(C)C
71 to 72	N#Cc1ccnc(Cl)c1
200	Cc1cc(C)nc(NS(=O)(=O)c2ccc(N)cc2)n1
187 to 190	CN1CCN(c2cccc(C(=O)O)c2)CC1
104	CC12CCC(C(C(=O)c3cccc4ccccc34)C1=O)C2(C)C (stereo not given)
96	Cc1cc(=O)oc(C)c1C(=O)Oc1cccc(Cl)c1
197 to 199	NC(=O)c1ccc(-c2ccccn2)s1
33	CC(=O)c1ccc(C=O)cc1
164	CC(C)(C)NCC(O)COc1ccccc1C#N (stereo not given)
214 to 218	O=C(O)Cn1c(CN2CCOCC2)nc2ccccc21
31	c1coc(CSCc2ccco2)c1
154	O=C(Nc1ccccc1)c1ccccc1[N+](=O)[O-]
197	CC(=O)CC(c1ccc([N+](=O)[O-])cc1)c1c(O)oc2ccccc2c1=O (stereo not given)

melting point [°C]	Structure (SMILES)
71	COc1cccc(O)c1C=O
37	CCOC(=O)C(O)c1ccccc1 (racemic)
48	Cc1ccc(Cl)c(O)c1F
95 to 97	Cc1occc1C(=O)CC#N
70	COC(=O)c1cccc2[nH]ccc12
121 to 124	COC(=O)c1noc(C)c1C(C)=NO
266	CC1(C)OC2CC3C4CC(F)C5=CC(=O)C=CC5(C)C4(F)C(O)CC3(C)C2(C(=O)CO)O1 (stereo not given)
23 to 25	Cc1cc(Cl)ccc1[N+](=O)[O-]
125 to 127	CCOC(=O)c1c(NC(=S)NCc2ccccc2)sc2c1CCCC2
194 to 198	O=C(O)c1cccc2c1C(=O)c1ccccc1-2
223 to 225	N#CCSc1nc(=O)[nH]c2c1CCCC2
233 to 235	Cc1cc(C(F)(F)F)c(C#N)c(=O)[nH]1
195 to 199	O=C(O)C=Cc1cc(Br)ccc1F
137 to 138	O=C(O)c1cnn(-c2ccc(Cl)cc2)c1C(F)(F)F
238 to 239	NC(Cc1c[nH]c2ccc(F)cc12)C(=O)O (racemic)
72 to 75	O=C(c1ccccc1)c1ccc2c(c1)OCCCO2
99 to 102	COc1ccc2nonc2c1
127 to 129	CCOC(=O)C1CN(Cc2ccco2)C(=O)C1=O (stereo not given)
250	CC(=O)Nc1ccc(-c2csc(N)n2)cc1
198	CCOC(=O)c1cnc2sc(C(F)(F)F)nn2c1=N
159 to 160	COC(=O)c1cc(O)no1

Second part, the compound before the results:

Structure (SMILES)	melting point [°C]
CCCCCCCCCCCCCCCl	4.9
O=[N+]([O-])c1ccc(-c2nnc(NC3=NCCN3)s2)cc1	239 to 241
CC(C)=CCNC(=N)N	62.5
NC(=S)Nc1ccc(O)cc1	214
CCCCCCCCCC(=O)OC	-18
N#C/C(=N/Nc1cc(Cl)c(Cl)cc1Cl)c1nc2ccccc2c(=O)[nH]1	149
Brc1ccc2nccn2c1	76 to 78
C#Cc1ccc(F)cc1	28
CC(C)=NNc1ccccc1	42
C=CC(N)CCC(=O)O (stereo not given)	209
NS(=O)(=O)c1ccc(S(=O)(=O)CCCCO)c(F)c1	134
Oc1c(Cl)c(Cl)cc(Cl)c1Cl	115
Ic1ccc(Cn2cncn2)cc1	82 to 84
Cc1ccc(N/N=C(/C(=O)c2cccc3ccccc23)S(=O)(=O)c2ccccc2)cc1	108 to 110
O=C(O)Cc1ccc([N+](=O)[O-])cc1[N+](=O)[O-]	180
NNCc1ccccc1	26
O=C1CSC(=S)N1c1ccccc1	194
NCP(=O)(O)O	300
CC(O)CC(C)(C)O (stereo not given)	-40
CN1CCC(=O)NC1=O	171
O=C(OC(Cl)(Cl)Cl)C(Cl)(Cl)Cl	34
Brc1ccc(OC2CCOCC2)nc1	96 to 98

Structure (SMILES)	melting point [°C]
CC(=O)NCC1(c2ccccc2)CCN(CCCC(=O)c2ccc(F)cc2)CC1	98.5
Clc1cc(Cl)c2c(c1)oc1c(Cl)cc(Cl)cc12	177
CC1OC1P(=O)(O)O (stereo not given)	94
C=CCc1ccccc1O	-6
Nc1nc(F)nc2c1ncn2C1OC(CO)C(O)C1O (stereo not given)	260
CCOC(=O)Oc1c(OC)cc(C(=O)OC2CC3CN4CCc5c([nH]c6cc(OC)ccc56)C4CC3C(C(=O)OC)C2OC)cc1OC (stereo not given)	177
COC(=O)c1scc(S(=O)(=O)C(C)C)c1S(=O)(=O)Cl	128 to 129
C[C@@H]1C(=O)[C@]23C[C@H]1CC[C@H]2[C@@]1(CCC[C@@]2(C)COC(=O)[C@H]21)COC3=O	297
CC(=O)OC[C@H]1O[C@@H](OC(C)=O)[C@H](OC(C)=O)[C@@H](OC(C)=O)[C@H]1OC(C)=O	144
c1ccc(-c2nnc3n2NC(c2ccccc2)S3)cc1 (stereo not given)	83
Cc1cc(NS(=O)(=O)c2ccc(N)cc2)n(-c2ccccc2)n1	195
CCN(CC)C(=S)Cl	45 to 50
CCCCCC(O)C=CC1C(O)CC(O)C1CC=CCCCC(=O)O (stereo not given)	30
O=Nc1ccc(C(=O)OC2Cc3ccccc32)cc1 (stereo not given)	119
Cc1ccc([Si](C)(c2ccc(C)cc2)c2ccc(C)cc2)cc1	92
N#C/C(=N/Nc1cccc([N+](=O)[O-])c1)c1nc(-c2ccccc2)cs1	215
FC(F)=C(F)Cl	-109
CNC(=O)ON=C(C)SC	78
CC(=O)Nc1ccc(-c2ccc(NC(C)=O)cc2NC(C)=O)c(NC(C)=O)c1	283
COC1CC2C3(C)CCCC2(COC3)C2C(OC(C)=O)CC3C(C)C(=O)C12C3O (stereo not given)	165
CC(C(=O)O)P(=O)(O)O (stereo not given)	120
C1CCN(CCN2CCCCC2)CC1	-0.5

Structure (SMILES)	melting point [°C]
CCc1ccc([N+](=O)[O-])cc1	-12
CN(C)C(c1ccccc1)c1ccccc1	69
CCOC(CN)OCC	-78
CC1=C(C)C(=O)C(C(CCCCCC(=O)O)c2ccccc2)=C(C)C1=O (stereo not given)	128
CC(C)n1c2c(c(=O)[nH]c1=O)CCCC2	229 to 230
O=C(O)C1CCN(c2ncnc3ccsc23)CC1	248 to 249
C1#CCOCc2ccccc2COCC#CCOCc2ccccc2COC1	130
CC(C)c1cc(Oc2ccccc2)cc(C(C)C)c1NC(=S)NC(C)(C)C	146
CC(=O)NC1CC=CCC(NC(C)=O)CC=CC1 (stereo not given)	267 to 277
CC1=NN(c2ccccc2)C(=O)/C1=C\c1cccc(/C=C2\C(=O)N(c3ccccc3)N=C2C)c1	220
CCCCCCCCCCCCCCCCCCN(C)C	22.9
Nn1c(S)nnc1C(F)(F)F	141
Cc1cc(C)c(C2(C)CC(C(=O)c3cc4cc(Br)ccc4o3)C2)c(C)c1 (stereo not given)	208 to 209
O=C(O)C(C(=O)O)c1ccccc1	153 to 155
CN(C)c1ccc(/C=C(/C#N)c2nc(-c3ccc(Cl)cc3)cs2)cc1	133
CCCCCCCCCCCC(O)CC (stereo not given)	31.5
N#C/C(=N\Nc1cccc([N+](=O)[O-])c1)c1nc2ccccc2[nH]1	306 to 308
Nc1ccc(I)cn1	128
Cc1ccc(Cl)cc1C	-6
N#CC1(c2c(F)cccc2Cl)CCCCC1	76 to 81
O=C(Nc1ccccn1)c1cc([N+](=O)[O-])cc([N+](=O)[O-])c1	201
Cc1ccc(Nc2ccc(C)cc2)cc1	79.8

Structure (SMILES)	melting point [°C]
O=Cc1ccsc1Sc1ccc(Cl)cc1	57 to 60
O=S1CCC1	31.5
Nc1ccc(C(O)(C(F)(F)F)C(F)(F)F)cc1	150
BrC(Br)c1ccc(C(Br)Br)cc1	170 to 173
COc1ccc(OC)c(NC(N)=S)c1	160
Cn1nc(CCl)cc1-c1ccccc1	59 to 61
CCCCCCCCCCCCOC(=O)c1ccccc1C(=O)OCCCCCCCCCCCC	21 to 23
COc1cc2c(cc1C)C(Cl)C2 (stereo not given)	41
Ic1ccc(N(c2ccc(I)cc2)c2ccc(I)cc2)cc1	167
Oc1c(Cl)cc(Cl)c2ccccc12	108
Clc1ccc(-c2cc[nH]n2)cc1	80 to 84
CN(C(=O)COc1nc2ccccc2s1)c1ccccc1	135
OCC(I)CC(F)(F)C(F)(F)C(F)(F)C(F)(F)C(F)(F)C(F)(F)C(F)(F)C(F)(F)F (stereo not given)	54 to 55
NC1=C(C(=O)Nc2ccccc2)C(c2ccc(Br)cc2)C2Oc3ccccc3C2O1 (stereo not given)	282
O=C(/C(=N/Nc1cccnc1)C(=O)C(F)(F)F)c1cccs1	150
Clc1ccc(C(Cl)(Cl)Cl)cc1	5.8
CCCCCCCCCCCCCCCC(=O)OCC	24
CCc1ccc2c(c1)CCCC2	-70
Cn1nc(O)cc1C(F)(F)F	114 to 115
c1nnc(SCCSc2nnc[nH]2)[nH]1	197 to 200
CN(C)CCC=C1c2ccccc2CSc2ccccc21	56
CNS(=O)(=O)Cc1ccc2[nH]cc(CCN(C)C)c2c1	169
